Data: ChEMBL document CHEMBL1201862, “PubChem BioAssay data set” (2004)
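In this assay, cells in 96-well plates receive the compound at five concentrations for 48 hours. Endpoints are linearly interpolated between the surrounding concentrations. Here, GI50 denotes the concentration required for 50% inhibition of growth.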 The source made the active and inactive calls. Rule as the data show it: active = GI50 up to about 1.1 µM and inactive = higher. Peptide text beside a SMILES is read from it. * marks the point of attachment. Boc = CC(C)(C)OC(=O)*

Tests used:
Test in all cases: inhibition of tumour cell growth, NCI panel, 48 h
M14 = system: M14
HL-60 = system: HL-60
SK-MEL-5 = system: SK-MEL-5
A549 = system: A549
HCT-15 = system: HCT-15
MDA-N = system: MDA-N
MCF7 = system: MCF7
HT-29 = system: HT-29
HCT-116 = system: HCT-116
TK-10 = system: TK-10
OVCAR-3 = system: OVCAR-3
KM12 = system: KM12
SF-268 = system: SF-268
RXF 393 = system: RXF 393
NCI-H226 = system: NCI-H226
SNB-75 = system: SNB-75
U-251 = system: U-251
OVCAR-4 = system: OVCAR-4
UACC-257 = system: UACC-257

Measured: GI50

CC1=[N+]([O-])C(C)(C)N(O)C1(C)C
inactive: M14 > 100 µM | HL-60 > 100 µM | SK-MEL-5 > 100 µM | A549 > 100 µM | MDA-N > 100 µM | MCF7 > 100 µM | HT-29 > 100 µM | HCT-116 > 100 µM | TK-10 > 100 µM | OVCAR-3 > 100 µM | KM12 > 100 µM | SF-268 > 100 µM | RXF 393 > 100 µM | NCI-H226 > 100 µM | SNB-75 > 100 µM | U-251 > 100 µM | OVCAR-4 > 100 µM
> 100 µM: HCT-15

NC(=O)c1nnsc1N/N=C/c1ccc([N+](=O)[O-])cc1
> 100 µM: HCT-15
inactive: M14 > 100 µM | HL-60 73.5 µM | SK-MEL-5 > 100 µM | A549 > 100 µM | MDA-N > 100 µM | MCF7 > 100 µM | HT-29 > 100 µM | HCT-116 > 100 µM | OVCAR-3 55.2 µM | KM12 > 100 µM | SF-268 > 100 µM | RXF 393 > 100 µM | NCI-H226 > 100 µM | SNB-75 > 100 µM | U-251 > 100 µM | OVCAR-4 > 100 µM | UACC-257 > 100 µM

COC(=O)/C=C1/OC(c2ccc(C)cc2C)=CC1=O
inactive: M14 15.6 µM | HL-60 2.74 µM | SK-MEL-5 16.4 µM | MDA-N 15.2 µM | MCF7 8.26 µM | HT-29 5.18 µM | HCT-116 11.5 µM | TK-10 17.5 µM | OVCAR-3 26.9 µM | KM12 17.6 µM | SF-268 17.8 µM | RXF 393 12.1 µM | NCI-H226 19.5 µM | SNB-75 12.9 µM | U-251 17.4 µM | OVCAR-4 > 10 µM
13.9 µM: HCT-15

COC(=O)NC(Cc1ccccc1)NC(C)=O (centres undefined)
inactive: M14 > 100 µM | HL-60 > 100 µM | SK-MEL-5 > 100 µM | A549 > 100 µM | MDA-N > 100 µM | MCF7 > 100 µM | HT-29 > 100 µM | HCT-116 > 100 µM | TK-10 > 100 µM | OVCAR-3 > 100 µM | KM12 > 100 µM | SF-268 > 100 µM | RXF 393 > 100 µM | SNB-75 > 100 µM | U-251 > 100 µM | OVCAR-4 > 100 µM | UACC-257 > 100 µM
> 100 µM: HCT-15

COc1cc(C2OC(N)=C(C#N)C3=C2C(C)CCC3)cc(OC)c1OC (centres undefined)
> 100 µM: HCT-15
inactive: M14 > 100 µM | HL-60 > 100 µM | SK-MEL-5 > 100 µM | MDA-N > 100 µM | MCF7 > 100 µM | HT-29 > 100 µM | HCT-116 > 100 µM | TK-10 > 100 µM | OVCAR-3 > 100 µM | KM12 > 100 µM | SF-268 > 100 µM | RXF 393 21.9 µM | NCI-H226 68.7 µM | SNB-75 10.9 µM | U-251 > 100 µM | UACC-257 > 100 µM

CCOP(=O)(OCC)C(NC(=O)C(C(F)(F)F)C(F)(F)F)c1ccccc1 (centres undefined)
inactive: M14 > 100 µM | HL-60 24.6 µM | SK-MEL-5 > 100 µM | A549 > 100 µM | MDA-N > 100 µM | MCF7 97.9 µM | HT-29 > 100 µM | HCT-116 > 100 µM | TK-10 > 100 µM | OVCAR-3 > 100 µM | KM12 > 100 µM | SF-268 > 100 µM | RXF 393 > 100 µM | SNB-75 > 100 µM | U-251 > 100 µM | OVCAR-4 > 100 µM | UACC-257 > 100 µM
> 100 µM: HCT-15

COC(=O)CSC(=S)Nc1nnc(NC(=S)SCOC(C)=O)n1C(=S)SCC(=O)OC
inactive: M14 > 100 µM | HL-60 > 100 µM | SK-MEL-5 > 100 µM | MDA-N > 100 µM | MCF7 > 100 µM | HT-29 > 100 µM | HCT-116 > 100 µM | OVCAR-3 > 100 µM | KM12 > 100 µM | SF-268 > 100 µM | RXF 393 > 100 µM | U-251 > 100 µM | OVCAR-4 > 100 µM | UACC-257 > 100 µM
> 100 µM: HCT-15

C[C@@H]1O[C@@H]2OCC[C@@H]2C2=C1C(=O)c1ccccc1C2=O
inactive: M14 3.98 µM | HL-60 3.51 µM | SK-MEL-5 5.94 µM | A549 19 µM | MDA-N 1.85 µM | MCF7 1.25 µM | HT-29 40 µM | TK-10 19.7 µM | OVCAR-3 3.08 µM | KM12 15.2 µM | SF-268 4.97 µM | RXF 393 3.46 µM | NCI-H226 26.7 µM | SNB-75 9.95 µM | U-251 7.53 µM | OVCAR-4 4.14 µM | UACC-257 11.5 µM
15.6 µM: HCT-15

COC1(OC)N=C(N)C2(C#N)C(C)=C3NCN(C)N=C3C12C#N (centres undefined)
> 100 µM: HCT-15
inactive: M14 > 100 µM | HL-60 > 10 µM | SK-MEL-5 > 100 µM | A549 > 100 µM | MDA-N > 100 µM | MCF7 > 100 µM | HT-29 > 100 µM | HCT-116 > 100 µM | TK-10 > 100 µM | OVCAR-3 > 100 µM | KM12 > 100 µM | SF-268 > 100 µM | RXF 393 > 100 µM | NCI-H226 > 100 µM | SNB-75 > 100 µM | U-251 > 100 µM | UACC-257 > 100 µM

COc1ccc(CNc2ccn(C3OC(CO)C(O)C3O)c(=O)n2)cc1 (centres undefined)
> 100 µM: HCT-15
inactive: M14 50.5 µM | HL-60 27.2 µM | SK-MEL-5 62.5 µM | A549 > 100 µM | MDA-N 49.9 µM | MCF7 72.9 µM | HT-29 46.3 µM | HCT-116 55.5 µM | TK-10 > 100 µM | OVCAR-3 > 100 µM | KM12 45.9 µM | SF-268 > 100 µM | RXF 393 > 100 µM | NCI-H226 > 100 µM | U-251 > 100 µM | OVCAR-4 37.2 µM | UACC-257 49.8 µM

CC(=O)Nc1nc(C)c(S(=O)(=O)NC(=O)N2c3ccccc3CCc3ccccc32)s1
> 100 µM: HCT-15
inactive: M14 > 100 µM | HL-60 > 100 µM | SK-MEL-5 > 100 µM | A549 > 100 µM | MDA-N > 100 µM | MCF7 > 100 µM | HT-29 > 100 µM | HCT-116 > 100 µM | TK-10 > 100 µM | OVCAR-3 > 100 µM | KM12 > 100 µM | SF-268 > 100 µM | RXF 393 > 100 µM | SNB-75 > 100 µM | U-251 > 100 µM | OVCAR-4 > 100 µM | UACC-257 > 100 µM

CC(C)(C)OC(=O)NCC(=O)N1CCN(C(=O)CNC(=O)OC(C)(C)C)CC1
inactive: M14 > 100 µM | HL-60 > 100 µM | SK-MEL-5 > 100 µM | A549 > 100 µM | MDA-N > 100 µM | MCF7 > 100 µM | HT-29 > 100 µM | HCT-116 > 100 µM | TK-10 > 100 µM | OVCAR-3 > 100 µM | KM12 > 100 µM | SF-268 18.7 µM | NCI-H226 > 100 µM | U-251 > 100 µM | OVCAR-4 > 100 µM | UACC-257 > 100 µM
> 100 µM: HCT-15

Cc1c(/N=N/c2ccc(Cl)cc2)c(-c2ccccc2)n(C2OC(CO)C(O)C(O)C2O)c(=S)c1C#N (centres undefined)
inactive: M14 17.4 µM | HL-60 32.6 µM | SK-MEL-5 13.1 µM | A549 17.3 µM | MDA-N 18.2 µM | MCF7 15.2 µM | HT-29 16.6 µM | HCT-116 14.3 µM | TK-10 21.2 µM | OVCAR-3 18.5 µM | KM12 16.8 µM | SF-268 22.2 µM | RXF 393 15 µM | SNB-75 18.7 µM | U-251 12.7 µM | OVCAR-4 17.2 µM | UACC-257 22.1 µM
17.1 µM: HCT-15

COc1ccc2nc3cc(Cl)ccc3c(NCCCN3CCN(CCCNc4ccc5nnn6c7ccccc7c(=O)c4c56)CC3)c2c1
0.179 µM: HCT-15
inactive: M14 > 25 µM | HL-60 1.14 µM | SK-MEL-5 > 25 µM | MDA-N 1.65 µM | TK-10 > 10.3 µM | OVCAR-3 > 25 µM | SF-268 > 7.36 µM | NCI-H226 > 25 µM | SNB-75 > 25 µM | U-251 1.32 µM | UACC-257 2.51 µM
active: A549 0.172 µM | MCF7 0.225 µM | HT-29 0.0251 µM | HCT-116 0.0191 µM | KM12 0.277 µM | RXF 393 0.948 µM

C#CCN(Cc1ccc2[nH]c(N)nc(=O)c2c1)c1ccc(C(=O)NC(CCC(=O)O)C(=O)O)cc1 (centres undefined)
inactive: M14 51.3 µM | HL-60 > 100 µM | SK-MEL-5 > 100 µM | A549 53.5 µM | MDA-N > 100 µM | MCF7 5.13 µM | HT-29 > 100 µM | HCT-116 > 100 µM | TK-10 10.8 µM | OVCAR-3 9.71 µM | KM12 > 100 µM | SF-268 17.5 µM | NCI-H226 > 100 µM | U-251 50.9 µM | UACC-257 > 100 µM
> 100 µM: HCT-15

COC(=O)C(Cc1c[nH]c2ccccc12)NC(=O)C(Cc1c[nH]c2ccccc12)NC(=O)C(Cc1c[nH]c2ccccc12)NC(=O)C(Cc1c[nH]c2ccccc12)NC(=O)C(Cc1c[nH]c2ccccc12)NC(=O)OC(C)(C)C (centres undefined) (Boc-WWWWW-OMe; configuration not given here)
> 100 µM: HCT-15
inactive: M14 33.3 µM | HL-60 33 µM | SK-MEL-5 17.5 µM | A549 67 µM | MDA-N 92 µM | MCF7 84.1 µM | HT-29 > 100 µM | HCT-116 29.7 µM | TK-10 > 100 µM | OVCAR-3 > 100 µM | SF-268 71 µM | NCI-H226 42 µM | SNB-75 36.5 µM | U-251 65.9 µM | OVCAR-4 > 100 µM | UACC-257 > 100 µM
